# Measurements: US8465947B2, “Lantibiotic biosynthetic gene clusters from A. garbadinensis and A. liguriae” (Novacta Biosystems Limited, priority 2006, dated 2013)
# Tested on: C. difficile
# Test: MIC against C. difficile, NCCLS agar dilution method for anaerobic bacteria
# Assay type: cell-based, Clostridium difficile
# Conditions: calcium 50 μg/ml
# Method: Minimum inhibitory concentrations (MICs) for C. difficile were determined and antimicrobial agent stock solutions were prepared and stored according to the NCCLS reference agar dilution method for anaerobic bacteria (M11-A5, 2001). Two-fold serial antibiotic dilutions were prepared in Wilkens-Chalgren agar (WCA). Test organisms were selected from 48 hour growth on Braziers (C.C.E.Y.) agar, subcultured in Schaedler broth to a density equivalent to a McFarland 0.5 standard (1×10^8 CFU/ml), with a final inoculum onto WCA plates of approximately 10^5 CFU/spot. Bacteroides fragilis ATCC 25285 was included as a reference control strain and Metronidazole was used as a reference antibiotic for quality control. All manipulations were performed in duplicate in ambient atmosphere in pre-reduced media with only brief exposure to oxygen. Plates were incubated anaerobically for 48 hours at 37° C. with the MIC defined as the concentration of drug where a marked reduction occurred in the appearance of growth on the test plate compared to growth on the anaerobic control plate.
# Culture media were supplemented with calcium ions (as calcium chloride) at 50 μg/ml except where higher concentrations are indicated.
Compound,MIC C. difficile 19126,MIC C. difficile 37779
"CC[C@H](C)[C@@H]1NC(=O)[C@@H]2NC(=O)[C@H](CC(C)C)NC(=O)[C@H](NC(=O)[C@@H]3CSC[C@@H](NC(=O)[C@@H](N)C(C)C)C(=O)N[C@@H](CO)C(=O)NCC(=O)N[C@@H](Cc4c[nH]c5ccccc45)C(=O)N[C@@H](C(C)C)C(=O)N3)[C@H](C)SC[C@H](NC(=O)[C@H](CCC(=O)O)NC1=O)C(=O)NCC(=O)N[C@H]1C(=O)N[C@@H](CC(C)C)C(=O)N[C@@H](C(C)C)C(=O)N[C@@H](CS[C@H]2C)C(=O)N[C@@H](C)C(=O)N[C@H](C(=O)O)CS[C@H]1C [Compound VI, L-Val(0)deoxyactagardine B]",8 µg/mL,8 µg/mL
"CC[C@H](C)[C@@H]1NC(=O)[C@@H]2NC(=O)[C@H](CC(C)C)NC(=O)[C@H](NC(=O)[C@@H]3CSC[C@@H](NC(=O)[C@@H](N)Cc4c[nH]c5ccccc45)C(=O)N[C@@H](CO)C(=O)NCC(=O)N[C@@H](Cc4c[nH]c5ccccc45)C(=O)N[C@@H](C(C)C)C(=O)N3)[C@H](C)SC[C@H](NC(=O)[C@H](CCC(=O)O)NC1=O)C(=O)NCC(=O)N[C@H]1C(=O)N[C@@H](CC(C)C)C(=O)N[C@@H](C(C)C)C(=O)N[C@@H](CS[C@H]2C)C(=O)N[C@@H](C)C(=O)N[C@H](C(=O)O)CS[C@H]1C [Compound IX, L-Tryp(0)deoxyactagardine B]",2 µg/mL,1 µg/mL
